US5977097A, “1-methylcarbapenem derivatives” (Sankyo Company Limited, priority 1996, dated 1999)
In brackets after ≈: the same amount, converted by molar mass.

How the values were obtained:
Nephrotoxicity = type: in vivo; settings: rabbits, intravenous, 200 mg/kg
Description: When the compounds of the present invention were administered to rabbits, the incorporation in to the renal cortex is relatively low.

Escherichia coli NIHJ [1] = experiment: In vitro antibacterial activity by agar plate dilution method (Test 1); type: cell-based; settings: Mueller-Hinton II agar, read-out: Minimum Growth Inhibitory Concentration (MIC)
Description: (§1) Antibacterial activity was measured by the agar plate dilution method, whereby the minimum growth inhibitory concentration (MIC: μg/ml) against various pathogenic bacteria was determined. The test results on the antibacterial activity of the compounds of the invention of Examples 3 and 7 against Staphylococcus aureus […], Escherichia coli NIHJ and Pseudomonas aeruginosa No. 7 are shown in Table 2. Incidentally, Compounds A and B used for comparison are compounds of Example 3 in Japanese Patent Application Kokai No. Hei 5-310740 [compounds represented by the formula (I) of the present invention, wherein R^1, R^2 and R^3 represent hydrogen atoms]. Compound A has the R configuration at the binding position of the aminomethyl group. Compound B has the S configuration at the binding position of the aminomethyl group. The medium used for the measurement was Mueller-Hinton II agar (MHA, Becton Dikinson Microbiology Systems).

[2] = system: Staphylococcus aureus 209P; experiment: as above; type: cell-based; settings: Mueller-Hinton II agar, read-out: Minimum Growth Inhibitory Concentration (MIC)
Description: as §1

[3] = system: Pseudomonas aeruginosa No. 7; experiment: as above; type: cell-based; settings: Mueller-Hinton II agar, read-out: Minimum Growth Inhibitory Concentration (MIC)
Description: as §1

[4] = system: Pseudomonas aeruginosa 1008; experiment: In vivo antibacterial activity, treatment of infected mice (Test 3); design: species or system mice (SPF, DDY, male); settings: Pseudomonas aeruginosa, 1008, sc, 120 h, intraperitoneal infection, subcutaneous twice (immediately and 4 h after inoculation), survival at five days, expressed as single dose, read-out: Treatment against infections, 50% effective dose (ED50)
Description: The culture of the bacterial strain to be tested was inoculated intraperitoneally to groups of mice (SPF, DDY, male), each group consisting of 7 animals. A solution of the test compound was subcutaneously administered twice in total to the mice, once immediately and once four hours after the inoculation. From the survival ratio five days after infection, the 50% effective dose (ED50 : mg/kg) was determined by the Probit method and the single dose of test compound was indicated. The test results of the compound of Example 3, compound A and Meropenem against Pseudomonas aeruginosa 1008 are shown in Table 4. Incidentally, Compound A is as described above.

Escherichia coli NIHJ [5] = experiment: In vitro antibacterial activity (Test 2); type: cell-based; settings: Nutrient Agar Eiken, read-out: Minimum Growth Inhibitory Concentration (MIC)
Description: (§2) Antibacterial activity was measured by the agar plate dilution method, whereby the minimum growth inhibitory concentration (MIC: μg/ml) against various pathogenic bacteria was determined. The test results on the antibacterial activity of the compounds of the invention of Examples 3 and 7 against Staphylococcus aureus 209P, Escherichia coli NIHJ and Pseudomonas aeruginosa No. 7 are shown in Table 2.
(§3) The antibacterial activities of the compounds of the invention of Examples 3 and 7 and meropenem against Staphylococcus aureus 209P, Escherichia coli NIHJ and Pseudomonas aeruginosa 3719 (strain resistant to meropenem) are shown in Table 3.
(§4) The medium used for the measurement was Nutrient Agar Eiken (Eiken Chemicals Co., Ltd.).

[6] = system: Pseudomonas aeruginosa 3719 (strain resistant to meropenem); experiment: In vitro antibacterial activity (Test 2); type: cell-based; settings: Pseudomonas aeruginosa 3719 (resistant to meropenem); Nutrient Agar Eiken; read-out: Minimum Growth Inhibitory Concentration (MIC)
Description: as §2, §3, §4

[7] = system: Staphylococcus aureus 209P; experiment: In vitro antibacterial activity (Test 2); type: cell-based; settings: Nutrient Agar Eiken, read-out: Minimum Growth Inhibitory Concentration (MIC)
Description: as §2, §3, §4

[8] = Pharmacokinetics such as half-life in blood; settings: in vivo
Pseudomonas aeruginosa = experiment: Antibacterial activity against Pseudomonas aeruginosa compared with aminomethyl compounds A and B; type: cell-based
Description: as §1, with “culture of” for “medium used for”, “bacterial strain to be tested” for “measurement”, “inoculated intraperitoneally to groups of mice (SPF, DDY, male), each group consisting of 7 animals. A solution of the test compound was subcutaneously administered twice in total to the mice, once immediately and once four hours after the inoculation. From the survival ratio five days after infection, the 50% effective dose (ED50 : mg/kg) was determined by the Probit method and the single dose of test compound was indicated.” for “Mueller-Hinton II agar (MHA, Becton Dikinson Microbiology Systems).”

Compound	nephrotoxicity (Nephrotoxicity)	MIC (Escherichia coli NIHJ [1]) [µg/mL]	MIC [2] [µg/mL]	MIC [3] [µg/mL]	ED50 [4] [mg/kg]	MIC (Escherichia coli NIHJ [5]) [µg/mL]	MIC [6] [µg/mL]	MIC [7] [µg/mL]	pharmacokinetic properties such as half-life in blood [8]	activity against Pseudomonas aeruginosa (Pseudomonas aeruginosa)
CNC[C@H]1CCN(C(=O)[C@@H]2C[C@H](SC3=C(C(=O)O)N4C(=O)[C@H]([C@@H](C)O)[C@H]4[C@H]3C)CN2)C1 [Example 3, (1R,5S,6S)-6-[(1R)-1-Hydroxyethyl]-1-methyl-2-[(2S,4S)-2-[(3R)-3-methylaminomethylpyrrolidin-1-ylcarbonyl]pyrrolidin-4-ylthio]-1-carbapen-2-em-3-carboxylic acid]	did not exhibit nephrotoxicity	0.02 (≈ 0.0442 µM)	0.02 (≈ 0.0442 µM)	0.05 (≈ 0.11 µM)	0.22	≤ 0.01	0.2 (≈ 0.442 µM)	≤ 0.01	excellent pharmacokinetic properties such as half-life in blood	superior activity against Pseudomonas aeruginosa
C[C@@H](O)[C@H]1C(=O)N2C(C(=O)O)=C(S[C@@H]3CN[C@H](C(=O)N4CC[C@H](CNC(=N)N)C4)C3)[C@H](C)[C@H]12 [Example 7, (1R,5S,6S)-2-[(2S,4S)-2-[(3R)-3-Guanidinomethylpyrrolidin-1-ylcarbonyl]pyrrolidin-4-ylthio]-6-[(1R)-1-hydroxyethyl]-1-methyl-1-carbapen-2-em-3-carboxylic acid]	–	0.02 (≈ 0.0416 µM)	0.02 (≈ 0.0416 µM)	0.05 (≈ 0.104 µM)	–	≤ 0.01	0.1 (≈ 0.208 µM)	≤ 0.01	–	–
C[C@@H](O)[C@H]1C(=O)N2C(C(=O)O)=C(S[C@@H]3CN[C@H](C(=O)N(C)C)C3)[C@H](C)[C@H]12 [Meropenem, meropenem, reference compound]	–	–	–	–	0.72	≤ 0.01	6.2 (≈ 16.2 µM)	0.02 (≈ 0.0522 µM)	–	–
